Where “and” joins values, the source holds several entries; their conditions need not be identical. Equal entries are not always repeated.
Experiments:
ERα [1] = biological target: T1, ERα (Homo sapiens, UniProt P03372); test: Cell-based luciferase reporter assay, full length ERα, agonist mode; conditions: 22 h
T1 construct: employs a full length and native ER (comprised of an ER LBD and an ER DBD)
T1 sequence (P03372 1-595): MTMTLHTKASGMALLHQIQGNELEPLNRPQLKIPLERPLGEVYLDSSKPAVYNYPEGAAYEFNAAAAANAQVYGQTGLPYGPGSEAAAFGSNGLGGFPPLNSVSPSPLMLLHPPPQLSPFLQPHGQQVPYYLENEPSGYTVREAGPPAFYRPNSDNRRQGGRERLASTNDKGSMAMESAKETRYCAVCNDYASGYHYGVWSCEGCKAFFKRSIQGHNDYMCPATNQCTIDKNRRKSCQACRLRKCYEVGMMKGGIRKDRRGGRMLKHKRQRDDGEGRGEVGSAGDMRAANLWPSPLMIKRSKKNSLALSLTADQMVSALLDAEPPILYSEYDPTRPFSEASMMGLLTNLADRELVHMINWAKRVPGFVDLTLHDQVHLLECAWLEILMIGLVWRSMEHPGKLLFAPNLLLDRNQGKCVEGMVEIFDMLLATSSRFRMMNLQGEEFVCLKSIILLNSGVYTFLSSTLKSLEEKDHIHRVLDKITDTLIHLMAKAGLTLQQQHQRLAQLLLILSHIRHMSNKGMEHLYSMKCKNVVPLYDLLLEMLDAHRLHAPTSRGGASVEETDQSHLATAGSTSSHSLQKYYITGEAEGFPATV

ERα [2] = biological target: T1, ERα; test: Cell-based luciferase reporter assay, full length ERα, antagonist mode
[3] = biological target: T2, human ER Beta ligand-binding domain (LBD) (Homo sapiens, UniProt Q92731); test: TR-FRET competitive binding assay, ERβ LBD; conditions: displacement of fluorescent tracer from ERβ LBD
T2 construct: purchased Thermo Fisher Scientific

ovariectomized mice = test: Peripheral tissue pathology (H&E of liver, kidney, heart); format: in vivo; conditions: 24 h after single IP injection; 0.5 or 5 mg/kg ISP358-2, 0.05 mg/kg DPN
Procedure: Assessment of Potential Peripheral Pathology. To assess possible toxicity of ISP358-2 treatment to peripheral organs, ovariectomized mice received a single intraperitoneal injection of vehicle or ISP358-2, and liver, kidney, and heart tissues were collected 24 hours later. […] Tissues were fixed in 10% formalin buffered solution for 24 hours. Twenty specimens were processed and analyzed. Each specimen contained three pieces of tissue. The tissues from each animal was transferred to a labeled cassette and processed on an automated tissue processor following standard procedures. The tissues were then embedded in paraffin wax. No specific orientation of the tissue was performed. Four-micron sections were cut from each paraffin block and placed onto a slide. The slides were then stained using hematoxylin and cosin (H&E) on an automated stainer (FIGS. 13A-13L). The slides were then examined by a pathologist (ACM) who is board certified in anatomical pathology by the American Board of Pathology. All specimens contained three tissue samples corresponding to liver, kidney, and heart. In some instances, portions of adjacent tissues were also present. […] For heart, the myocytes and coronary vessels were examined, (2) evidence of inflammation was evaluated including hepatitis, glomerulonephritis, interstitial nephritis, and myocarditis, and (3) evidence of ischemic changes was examined. […]

[4] = full length ERα, read-out: ERα agon. IC50
[5] = inhibition of estradiol-induced transcription, read-out: ERα antagon. IC50

T2 sequence (Q92731 264-498 limits assumed): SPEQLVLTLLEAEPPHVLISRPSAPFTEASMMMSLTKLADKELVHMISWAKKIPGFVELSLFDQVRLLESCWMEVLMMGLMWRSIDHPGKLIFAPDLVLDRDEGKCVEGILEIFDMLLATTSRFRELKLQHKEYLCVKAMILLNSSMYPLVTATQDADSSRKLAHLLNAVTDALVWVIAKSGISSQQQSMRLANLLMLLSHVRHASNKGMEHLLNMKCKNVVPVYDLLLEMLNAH

What does the source list for `OCC1CCC(c2ccc(O)cc2)CC1` (stereo not drawn) [15:16 (3:2), 4-(4-(Hydroxymethyl)cyclohexyl) phenol]?
IC50 (ERα [1]; ERα agon. IC50, full length ERα): > 100 µM; IC50 (ERα [2]): > 10 µM

Which results are given for `OCC=C1CCC(c2ccc(O)cc2)CC1` (stereo not drawn) [Compound 24, 4-(4′-Hydroxyphenyl) (2-hydroxyethylidene) cyclohexane]?
IC50 [3]: 0.676 µM; IC50 ([3]; listed as (±)-24): 0.68 ± 0.11 µM

With `C=C1CCC(c2ccc(O)cc2)CC1` [Compound 7, 4-(4-Hydroxyphenyl) methylenecyclohexane] as the compound, how does the IC50 (ERα [1]; [4]) read?
Its IC50 is > 10 µM.

What about the IC50 (ERα [2]; [5]) of the same compound?
The IC50 was > 10 µM.

What does the source list for `OCCC1CCC(c2ccc(O)cc2)CC1` (stereo not drawn) [Compound 25, 4-[4-(2-Hydroxyethyl)cyclohexyl] phenol]?
IC50 (ERα [1]; [4]): > 50 µM; IC50 (ERα [2]; [5]): > 10 µM

With `N#CC(Cc1ccc(O)cc1)c1ccc(O)cc1` (stereo not drawn) [DPN, 2,3-bis(4-hydroxyphenyl)-propionitrile, reference compound] as the compound, how does the “histological abnormalities / peripheral toxicity in liver, kidney, heart” value (ovariectomized mice) read?
The value was “Histological abnormalities were not detected”.

How did the IC50 [3] turn out when `C=C1CCC(c2ccc(O)c(/C=N/O)c2)CC1` [Compound 10, 2-Hydroxy-5-(4-methylenecyclohexyl) benzaldehyde oxime] was run?
The IC50 was 0.225 ± 0.094 µM.

`OCC1(O)CCC(c2ccc(O)cc2)CC1` (single isomer, unassigned) [Compound 12, 4-(4-Hydroxy-4-(hydroxymethyl)cyclohexyl) phenol] was tested. Which IC50 [3] did it give?
Its IC50 is 2.7 µM.

Which IC50 [3] does the source give for `C=C1CCC(c2ccc(O)c(C=O)c2)CC1` [Compound 9, 2-Hydroxy-5-(4-methylenecyclohexyl) benzaldehyde] here?
The IC50 was 1 µM.

For `CC1CCC(c2ccc(O)cc2)CC1` (mixture of isomers) [Compound 8, 4-(4-Methylcyclohexyl) phenol], which IC50 (ERα [1]; [4]) is on record?
The IC50 was > 10 µM.

And the IC50 (ERα [2]; [5])?
Its IC50 is > 10 µM.

Which IC50 (ERα [1]; [4]) does the source give for `OCC1CC=C(c2ccc(O)cc2)CC1` (racemic) [Compound 18, 4′-(Hydroxymethyl)-2′,3′,4′,5′-tetrahydro-[1,1′-biphenyl]-4-ol] here?
Its IC50 is > 20 µM.

What about the IC50 (ERα [2]; [5]) of the same compound?
Its IC50 is > 10 µM.

`Oc1ccc([C@H]2CC[C@H](O)CC2)cc1` [Compound 2, trans-4-(4-Hydroxycyclohexyl) phenol] was tested. Which IC50 [3] did it give?
Its IC50 is 7.25 µM and 7.52 µM.

For `O=C1CCC(c2ccc(O)cc2)CC1` [Compound 1, 4-(4-hydroxyphenyl) cyclohexanone], which IC50 [3] is on record?
The IC50 was 19 µM.

With `Oc1ccc([C@]23CC[C@H](CC2)CO3)cc1` [Compound 17, 1-(4-Hydroxyphenyl)-2-oxabicyclo [2.2.2] octane] as the compound, how does the IC50 [3] read?
The IC50 was 0.25 ± 0.056 µM.

How did the IC50 [3] turn out when `ON=C1CCC(c2ccc(O)cc2)CC1` (stereo not drawn) [Compound 4, 4-(4-Hydroxyphenyl) cyclohexanone oxime] was run?
The IC50 was 1.57 µM.

`C[C@]1(O)CC[C@@H](c2ccc(O)cc2)CC1` [Compound 3, 4-(4-Hydroxy-4-methylcyclohexyl) phenol] was tested. Which IC50 [3] did it give?
Its IC50 is 6.29 µM.
